Measurements as given in ChEMBL document CHEMBL5728921, “Pyridylpyridone compounds” (2022).

Molecular target: Phosphatidylinositol 3-kinase catalytic subunit type 3 (Homo sapiens, UniProt Q8NEB9)
Test: Biochemical Assay: Dilution series of compounds of the invention were prepared in DMSO at 100 times the final assay concentration (n1=n0/3 in 10 points). The compounds were further diluted to 4 times the assay concentration in assay buffer (Life technologies buffer Q, PV5125, diluted 5 times supplemented with 2 mM DTT and 2 mM MnCl2). 2.5 μl of the diluted compounds were added to a 384 well assay plate followed by 2.5 μl of 16.5 nM Vps34 enzyme (Life technologies, PV5126). Enzyme and compounds were pre-incubated at rt for 15 min. Then 5 μl of substrate mix containing 20 μM ATP (Life technologies, PV3227) and 200 μM PI:PS substrate (Life technologies, PV5122) in assay buffer was added to the wells containing compound and enzyme. Mixing was performed by pipetting several times. The reaction was incubated at room temperature for 1 h. Then 5 μl stop-detection mix, prepared as described in the Adapta kinase assay kit instructions (Life technologies, PV5099) containing Adapta Eu-anti-ADP antibody (2.3 nM), Alexa Fluor 647 ADP tracer (9 nM) and EDTA (30 mM) in TR-FRET buffer, was added to quench the reaction. Mixing was performed by pipetting several times. The assay plate was then incubated at room temperature for 30 min and read with Artemis micro plate reader. Percent inhibition of the compounds as compared to DMSO treated control samples was calculated.

Chain of Phosphatidylinositol 3-kinase catalytic subunit type 3 (Q8NEB9 whole entry): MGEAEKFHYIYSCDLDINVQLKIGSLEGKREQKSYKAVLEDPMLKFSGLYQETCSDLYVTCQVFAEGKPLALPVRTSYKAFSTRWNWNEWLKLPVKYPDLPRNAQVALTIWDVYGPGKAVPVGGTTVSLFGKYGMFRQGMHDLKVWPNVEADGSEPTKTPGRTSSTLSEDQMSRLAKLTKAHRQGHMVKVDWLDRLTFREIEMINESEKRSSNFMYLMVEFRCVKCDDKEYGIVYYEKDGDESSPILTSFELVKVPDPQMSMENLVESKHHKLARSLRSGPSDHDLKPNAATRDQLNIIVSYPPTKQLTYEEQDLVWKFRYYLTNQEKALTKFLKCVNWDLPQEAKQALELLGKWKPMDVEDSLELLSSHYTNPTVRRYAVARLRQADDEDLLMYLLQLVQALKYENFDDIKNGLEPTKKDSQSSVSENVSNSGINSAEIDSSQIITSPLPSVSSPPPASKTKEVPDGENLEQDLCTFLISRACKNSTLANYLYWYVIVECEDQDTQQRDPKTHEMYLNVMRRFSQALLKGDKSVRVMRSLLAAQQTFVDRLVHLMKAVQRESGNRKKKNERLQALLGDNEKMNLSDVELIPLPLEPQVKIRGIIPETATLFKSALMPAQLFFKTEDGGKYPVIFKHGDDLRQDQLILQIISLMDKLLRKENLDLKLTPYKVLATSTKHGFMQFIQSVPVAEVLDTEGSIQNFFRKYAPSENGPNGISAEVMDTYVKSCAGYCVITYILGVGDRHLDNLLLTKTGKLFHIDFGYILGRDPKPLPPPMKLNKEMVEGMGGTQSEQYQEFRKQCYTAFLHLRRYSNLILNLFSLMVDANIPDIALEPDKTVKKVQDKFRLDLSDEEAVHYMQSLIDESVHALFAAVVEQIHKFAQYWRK

With `CC(=O)Nc1cc(-c2cc(-c3ccccc3Cl)[nH]c(=O)c2)ccn1` as the compound, how does the IC50 read?
The IC50 was < 5 nM.
